Measurements taken from patent publication US10513511B2, “Aqueous suspension formulation comprising 4-(4-(4-(((3R,5R)-5-((1H-1,2,4-triazol-1-yl)methyl)-5-(2,4-difluoro-phenyl)tetrahydrofuran-3-yl)methoxy)-3-methylphenyl) or a pharmaceutically acceptable salt thereof” (PULMOCIDE LIMITED, priority 2015, dated 2019).
Values after ≈ are worked out from the molar mass of the structure shown. Where two headings read alike, the source gives them in different places.

Legend:
Format in all cases: cell-based
[1] = tested on: Aspergillus fumigatus NCPF2010; assay: Planktonic fungus growth: broth microdilution assay (NCPF2010)
Protocol: (§1) This assay was conducted using a modified method published by EUCAST (Rodriguez-Tudela, et al., 2008). Spores of Aspergillus fumigatus (NCPF2010, NCPF7010 [methionine 220 mutation], NCPF7099 [Glycine G54 mutation]) from Public Health England, Wiltshire; TR34/L98H mutants from St Louis Hospital, Paris, France; TR46/Y121F/T289A mutants from University of Delhi, Delhi, India) were cultured in Sabouraud dextrose agar for 3 days. A stock spore suspension was prepared from a Sabouraud dextrose agar culture by washing with PBS-tween (10 mL; phosphate buffered saline containing 0.05% Tween-20, 100 U/mL penicillin and 100 U/mL streptomycin). The spore count was assessed using a Neubauer haemocytometer and then adjusted to 10^6 spores/mL with PBS. A working suspension of spores (2×10^5 spores/mL) was prepared in filter sterilised, BSA MOPS RPMI-1640 (50 mL; RPMI-1640 containing 2 mM L-glutamine, 0.5% BSA, 2% glucose, 0.165 M MOPS, buffered to pH 7 with NaOH).
(§2) For the assay, BSA MOPS RPMI-1640 (50 μL/well) was added throughout the 384-well plate (Catalogue number 353962, BD Falcon, Oxford, UK) first. Test compounds (0.5 μL DMSO solution) were then added in quadruplicate using an Integra VIAFLO 96 (Integra, Zizers, Switzerland), and mixed well using a plate mixer. Subsequently 50 μL of the working spore suspension prepared above was added to all wells except non-spore control wells. For non-spore control wells, BSA MOPS-RPMI solution (50 μL/well) was added instead. The plate was covered with a plastic lid, and incubated (35° C. with ambient air) for 48 hr. The OD of each well at 530 nm was determined using a multi-scanner (Clariostar: BMG, Buckinghamshire, UK). The percentage inhibition for each well was calculated and the MIC50, MIC75 and MIC90 values were calculated from the concentration-response curve generated for each test compound.

[2] = tested on: Aspergillus fumigatus L98H (TR34/L98H); assay: Planktonic fungus growth: broth microdilution assay (L98H); conditions: for MIC: Aspergillus fumigatus, read-out: MIC75 Values against Aspergillus fumigatus isolate L98H
Protocol: as §1, §2

[3] = tested on: Aspergillus fumigatus TR46 (TR46/Y121F/T289A); assay: Planktonic fungus growth: broth microdilution assay (TR46); conditions: for MIC: Aspergillus fumigatus, read-out: MIC75 Values against Aspergillus fumigatus isolate TR46
Protocol: as §1, §2

[4] = tested on: Aspergillus fumigatus NCPF7099; assay: Planktonic fungus growth: broth microdilution assay (NCPF7099)
Protocol: as §1, §2

[5] = tested on: Aspergillus fumigatus NCPF7100; assay: Planktonic fungus growth: broth microdilution assay (NCPF7100); conditions: for MIC: Aspergillus fumigatus, NCPF7100, read-out: MIC75 Values against Aspergillus fumigatus isolate NCPF7100
[6] = tested on: BEAS2B cells; assay: Cell viability: resazurin assay; conditions: for effect on the viability of BEAS2B bronchial epithelial cells: at concentrations indicated in Table 4
Protocol: (§3) BEAS2B cells were seeded in 384-well plates (100 μL; 3000/well/; BD Falcon, Catalogue No 353962) in RPMI-LHC8 (RPMI-1640 and LHC8 media combined in equal proportions) one day before experimentation. For cell-free control wells, RPMI-LHC8 (100 μL) was added. Test compounds (0.5 μL of a DMSO solution) were added to give a final DMSO concentration of 0.5% using an Integra VIAFLO 96 (Integra, Zizers, Switzerland). BEAS2B cells were incubated with each test compound for 1 day (37° C./5% CO2 in RPMI-LHC8). After addition of resazurin stock solution (5 μL, 0.04%) the plates were incubated for a further 4 hr (37° C./5% CO2). The fluorescence of each well at 545 nm (excitation) and 590 nm (emission) was determined using a multi-scanner (Clariostar: BMG Labtech). The percentage loss of cell viability was calculated for each well relative to vehicle (0.5% DMSO) treatment. Where appropriate, a CC50 value was calculated from the concentration-response curve generated from the concentration-response curve for each test compound.

[7] = tested on: Aspergillus fumigatus (azole resistant strain: TR34/L98H); assay: Aspergillus fumigatus infection of human alveoli bilayers (transwells), azole resistant strain; conditions: TR34-L98H, Compound 0.3 μg/mL upper chamber, posaconazole 0.1 μg/mL lower chamber, combination of both
Protocol: In vitro models of human alveoli, consisting of a bilayer of human alveolar epithelial cells and endothelial cells, were prepared as previously described (Hope et al., 2007). This system allows administration of a test compound to the upper (“air” space) and/or lower (“systemic” space) compartments. This flexibility has been exploited to explore the effects of combination treatment by dosing Compound (I) to the upper chamber and posaconazole or other anti-fungal agents to the lower chamber. Primary human pulmonary artery endothelial cells (HPAEC) were harvested and diluted to 10^6 cells/mL in EGM-2 media (Lonza, Basel, Switzerland). Transwells were inverted and the cell suspension (100 μL/well) applied to the base of each transwell. The inverted transwells were incubated at RT within a flow hood for 2 hr after which they were turned upright. EGM-2 media was added to the lower (700 μL/well) and upper (100 μL/well) compartments and the transwells were incubated for 48 hr (37° C., 5% CO2). The EGM-2 media in the lower compartment was then replaced with fresh EGM-2 media. A549 cells were harvested and diluted to 5×10^5 cells/mL in 10% EBM, then added to the upper compartment (100 μL/well) of all transwells and the plates incubated for 72 hr (37° C., 5% CO2). Conidia of itraconazole sensitive Aspergillus fumigatus s (NCPF2010) and itraconazole resistant (TR34-L98H) strains were cultured separately in Sabouraud dextrose agar for 3 days. A stock conidia suspension of either strain was prepared from a Sabouraud dextrose agar culture by washing with PBS-tween (10 mL; PBS containing 0.05% Tween-20, 100 U/mL Penicillin and 100 U/mL Streptomycin). The conidia count was assessed using a Neubauer haemocytometer and adjusted to 10^6 conidia/mL with PBS. A working stock of conidia was prepared in EBM (10^5 conidia/mL) immediately prior to use.
Test and reference compounds (or neat DMSO as the vehicle) were added to the appropriate wells of 24-well plates (3 μL/well containing 600 μL of 2% FBS EBM) for lower compartment treatment and to 96-well plates (1 μL/well containing 200 μL of 2% FBS EBM) for the treatment of the upper compartment, to provide a final DMSO concentration of 0.5%. The media in the upper compartment was aspirated and that containing the appropriate test and reference compounds, or vehicle, were added (100 μL/well). Transwells were then transferred into the 24-well plate containing the test and reference compounds or DMSO vehicle. After incubation for 1 hr (35° C., 5% CO2) the conidia suspension (10 μL/well) was added to the upper compartment of each transwell. Plates were then incubated for 24 hr (35° C., 5% CO2). Supernatants from each compartment (5 μL/compartment) were collected and stored (−20° C.). Media was replaced daily after collection of the supernatants and all wells were treated with test and reference compounds or with DMSO, as described above, for 3 days. Samples continued to be collected until fungal growth was visible by eye in all transwells. The levels of GM in the supernatant in lower compartment were then measured by ELISA (BioRad, CA, USA) as an index of Aspergillus fumigatus invasion.

[8] = Cell viability: resazurin assay; conditions: human, BEAS2B cells; 1 day incubation, resazurin; n = 3
Protocol: as §3

[9] = tested on: Aspergillus fumigatus (NCPF2010); assay: Aspergillus fumigatus infection of BEAS2B bronchial epithelial cells (galactomannan); conditions: NCPF2010, 24 h, read-out: Infection of BEAS2B cells MIC50
Protocol: BEAS2B cells were seeded in 96-well plates (100 μL; 3×10^4 cells/well; Catalogue No 3596, Sigma Aldrich, Dorset, UK) in 10% FBS RPMI-1640 and were then incubated (37° C., 5% CO2) for one day before experimentation. Test compounds (0.5 μL DMSO solution) or vehicle (DMSO) were added to each well to give a final DMSO concentration of 0.5%. BEAS2B cells were incubated with test compounds for 1 hr (35° C., 5% CO2) before infection with Aspergillus fumigatus (20 uL; Public Health England) conidia suspension (0.5×10^5/mL in 10% FBS RPMI-1640). The plate was incubated for 24 hr (35° C., 5% CO2). Supernatant (50 uL) was collected and transferred to a PCR plate (Catalogue No L1402-9700, Starlab, Milton Keynes, UK), which was frozen (−20° C.) until use. After thawing, supernatant (5 μL) was diluted 1:20 by adding R7-PBS solution (95 μL; 1:4 R7 to PBS; Bio-Rad Laboratories, Redmond, Wash., USA). Galactomannan levels in these samples (50 μL) were measured using Platelia GM-EIA kits (Bio-Rad Laboratories, Redmond, Wash., USA). The percentage inhibition for each well was calculated and the IC50 value was calculated from the concentration-response curve generated for each test compound.

[10] = broth microdilution assay, n = 2-3
[11] = Aspergillus fumigatus, NCPF2010, n = 2-3, read-out: MIC75 Values against Aspergillus fumigatus isolate NCPF2010
[12] = Aspergillus fumigatus, NCPF7099, n = 2-3, read-out: MIC75 Values against Aspergillus fumigatus isolate NCPF7099

| Compound | MIC [1, 11] [µM] | MIC [2] [µM] | MIC [3] [µM] | MIC [4, 12] [µM] | MIC [5] [µM] | CC50 at 1 day [8] [µM] | effect on the viability of BEAS2B bronchial epithelial cells [6] | further results |
| --- | --- | --- | --- | --- | --- | --- | --- | --- |
| C[C@@H]1[C@H](O)[C@@H](C)/C=C/C=C/C=C/C=C/C=C/C=C/C=C/[C@H](O[C@@H]2O[C@H](C)[C@@H](O)[C@H](N)[C@@H]2O)C[C@@H]2O[C@](O)(C[C@@H](O)C[C@@H](O)[C@H](O)CC[C@@H](O)C[C@@H](O)CC(=O)O[C@H]1C)C[C@H](O)[C@H]2C(=O)O [Amphotericin B, reference compound] |  |  |  |  |  |  |  | MIC ([1]; n = 2-3, read-out: MIC75 Values against Aspergillus fumigatus isolate NCPF2010): 0.407 µM (≈ 0.376 µg/mL); MIC75 Values against Aspergillus fumigatus isolate L98H [2, 10]: 0.195 µM (≈ 0.18 µg/mL); MIC75 Values against Aspergillus fumigatus isolate TR46 [3, 10]: 0.187 µM (≈ 0.173 µg/mL); MIC ([4]; n = 2-3, read-out: MIC75 Values against Aspergillus fumigatus isolate NCPF7099): 0.248 µM (≈ 0.229 µg/mL); MIC75 Values against Aspergillus fumigatus isolate NCPF7100 [5, 10]: 0.523 µM (≈ 0.483 µg/mL); CC50 ([6]; 1 day incubation, resazurin, n = 3): 2.34 µM |
| Cc1cc(N2CCN(c3ccc(C(=O)NC4CCCCC4O)cc3)CC2)ccc1OC[C@@H]1CO[C@@](Cn2cncn2)(c2ccc(F)cc2F)C1 (stereo partly drawn) [Compound (I), 4-(4-(4-(((3R,5R)-5-((1H-1,2,4-triazol-1-yl)methyl)-5-(2,4-difluorophenyl)tetrahydrofuran-3-yl)methoxy)-3-methylphenyl)piperazin-1-yl)-N-(2-hydroxycyclohexyl)benzamide] |  |  |  |  |  |  |  | GM Levels in the Lower Chamber, OD value ([7]; Day 0): 0 OD; GM Levels in the Lower Chamber, % inhibition vs. vehicle control ([7]; Day 1): 98%; GM Levels in the Lower Chamber, OD value ([7]; Day 1): 0.016 OD; GM Levels in the Lower Chamber, % inhibition vs. vehicle control ([7]; Day 2): 24%; GM Levels in the Lower Chamber, OD value ([7]; Day 2): 0.84 OD; GM Levels in the Lower Chamber, % inhibition vs. vehicle control ([7]; Day 3): 4.6%; GM Levels in the Lower Chamber, OD value ([7]; Day 3): 1.01 OD; DFB50: Days taken to reach a fungal burden of 50% of control [7]: 1.53 days |
| Cc1cc(N2CCN(c3ccc(C(=O)N[C@@H]4CCCC[C@H]4O)cc3)CC2)ccc1OC[C@@H]1CO[C@@](Cn2cncn2)(c2ccc(F)cc2F)C1 [Compound (Ib), 4-(4-(4-(((3R,5R)-5-((1H-1,2,4-triazol-1-yl)methyl)-5-(2,4-difluorophenyl)tetrahydrofuran-3-yl)methoxy)-3-methylphenyl)piperazin-1-yl)-N-((1R,2R)-2-hydroxycyclohexyl)benzamide] | 0.00802 (≈ 0.00551 µg/mL) | 0.303 (≈ 0.208 µg/mL) | 0.334 (≈ 0.229 µg/mL) | 0.0862 (≈ 0.0592 µg/mL) | 0.0873 (≈ 0.06 µg/mL) | > 14.6 | no or little effect |  |
| Cc1cc(N2CCN(c3ccc(C(=O)N[C@H]4CCCC[C@H]4O)cc3)CC2)ccc1OC[C@@H]1CO[C@@](Cn2cncn2)(c2ccc(F)cc2F)C1 [Compound (Ic), 4-(4-(4-(((3R,5R)-5-((1H-1,2,4-triazol-1-yl)methyl)-5-(2,4-difluorophenyl)tetrahydrofuran-3-yl)methoxy)-3-methylphenyl)piperazin-1-yl)-N-((1S,2R)-2-hydroxycyclohexyl)benzamide] | 0.00227 (≈ 0.00156 µg/mL) | 0.0549 (≈ 0.0377 µg/mL) | 0.164 (≈ 0.113 µg/mL) | 0.0115 (≈ 0.0079 µg/mL) | 0.0109 (≈ 0.00749 µg/mL) | > 14.6 | no or little effect | MIC50 [9]: 0.00186 µM (≈ 0.00128 µg/mL) |
| Cc1cc(N2CCN(c3ccc(C(=O)N[C@@H]4CCCC[C@@H]4O)cc3)CC2)ccc1OC[C@@H]1CO[C@@](Cn2cncn2)(c2ccc(F)cc2F)C1 [Compound (Id), 4-(4-(4-(((3R,5R)-5-((1H-1,2,4-triazol-1-yl)methyl)-5-(2,4-difluorophenyl)tetrahydrofuran-3-yl)methoxy)-3-methylphenyl)piperazin-1-yl)-N-((1R,2S)-2-hydroxycyclohexyl)benzamide] | 0.00851 (≈ 0.00584 µg/mL) | 0.07 (≈ 0.0481 µg/mL) | 0.316 (≈ 0.217 µg/mL) | 0.0117 (≈ 0.00804 µg/mL) | 0.0252 (≈ 0.0173 µg/mL) | > 14.6 | no or little effect |  |
